# Assay results as given in patent US11352352B2, “Aminopyrimidine compound, preparation method therefor and use thereof” (BEIJING ADAMADLE BIOTECHNOLOGY LIMITED LIABILITY COMPANY, priority 2017, dated 2022).
# Assays:
# Assay in all cases: Cell proliferation inhibition experiment, CellTiter-Glo (CTG) method
# Format in all cases: cell-based
# PC-9 = PC-9 cells, 3 days
# How it was run: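 Cells in log-phase growth (viability above 90% by trypan blue) were seeded at 90 μL per well in black-walled, clear-bottom 96-well plates and incubated overnight at 37° C., 5% CO2. A T0 plate was read the next day. Test compounds were added at nine concentrations in triplicate with a solvent control. Viability was measured by CellTiter-Glo luminescence on EnVision, and IC50 came from non-linear S-curve fitting in GraphPad Prism 5.0.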
# NCI-H1975 = settings: for IC50: Homo sapiens, NCI-H1975, 72 h, NCI-H1975 cells, CTG, 3 days; for A-431/NCI-H1975 Selectivity: ratio of A-431 IC50 to NCI-H1975 IC50
# How it was run: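 NCI-H1975 cells with viability above 90% by trypan blue were seeded at 90 μL per well in black 96-well plates and incubated overnight at 37° C., 5% CO2. Compounds were added at nine concentrations in triplicate, and viability was measured with CellTiter-Glo luminescence on EnVision. IC50 came from non-linear S-curve fitting in GraphPad Prism 5.0.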
# A-431 = A-431 cells, 3 days
# How it was run: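 CTG luminescence measured after 3-day compound exposure, with a T0 plate read the day after seeding and solvent wells as control. Nine concentrations, 3-fold steps, in triplicate: A-431 from 30 μM, NCI-H1975 and PC-9 from 1.111 μM. IC50 derived by non-linear S-curve regression.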
Compound,IC50 (PC-9) [nM],IC50 (NCI-H1975) [nM],IC50 (A-431) [nM],"IC50 (PC-9; Homo sapiens, PC-9, 72 h) [nM]","IC50 (A-431; Homo sapiens, A-431, 72 h) [nM]",A-431/NCI-H1975 Selectivity (NCI-H1975)
C=CC(=O)Nc1cc(Nc2cc(-c3ccc4c(cnn4C)c3)ncn2)c(OC)cc1N1CCC(N2CCOCC2)CC1 [compound 152],43.2,23.6,1970,–,–,83.3
C=CC(=O)Nc1cc(Nc2cc(-c3ccc4c(cnn4C)c3)ncn2)c(OC(F)F)cc1N1CCN(C2CCOCC2)CC1 [compound 153],–,25,–,35.1,1320,53.0
C=CC(=O)Nc1cc(Nc2cc(-c3ccc4cnn(C)c4c3)ncn2)c(OC)cc1N1C[C@@H](C)N(C)[C@@H](C)C1 [compound 154],–,34.7,–,36.4,1400,–
C=CC(=O)Nc1cc(Nc2cc(-c3ccc4cnn(C)c4c3)ncn2)c(OC)cc1N1CCC(N2C[C@@H](C)N(C)[C@@H](C)C2)CC1 [compound 156],–,25.1,–,2.7,1240,49.5
C=CC(=O)Nc1cc(Nc2cc(-c3ccc4cnn(C)c4c3)ncn2)c(OC)cc1N1CCC(N2CCN(C(C)C)CC2)CC1 [compound 157],–,32.7,–,11,1650,50.6
C=CC(=O)Nc1cc(Nc2cc(-c3ccc4cnn(C)c4c3)ncn2)c(OC)cc1N1CCN(CCOC)CC1 [compound 159],–,31.9,–,27.9,1530,–
C=CC(=O)Nc1cc(Nc2cc(-c3ccc4cnn(C)c4c3)ncn2)c(OC(F)F)cc1N1C[C@@H](C)C(N)[C@@H](C)C1 (stereo partly drawn) [compound 160],–,39.2,–,32.7,2080,53.0
C=CC(=O)Nc1cc(Nc2cc(-c3ccc4cnn(C)c4c3)ncn2)c(OC(F)F)cc1N1CCC(N2CCOCC2)CC1 [compound 161],–,17.4,–,19.9,1030,59.3
C=CC(=O)Nc1cc(Nc2cc(-c3ccc4cnn(C)c4c3)ncn2)c(OC(F)F)cc1N1CCC(N2C[C@@H](C)O[C@@H](C)C2)CC1 [compound 162],–,16.8,–,18.9,763,45.4
C=CC(=O)Nc1cc(Nc2cc(-c3ccc4cnn(C)c4c3)ncn2)c(OC(F)F)cc1N1CCC(N2C[C@@H](C)N(C)[C@@H](C)C2)CC1 [compound 163],–,18.5,–,13.8,834,45.1
C=CC(=O)Nc1cc(Nc2cc(-c3ccc4cnn(C)c4c3)ncn2)c(OC(F)F)cc1N(C)C1CCN(C)C1 (stereo not drawn) [compound 165],–,50,–,40.7,2650,53.0
C=CC(=O)Nc1cc(Nc2cc(-c3ccc4cnn(C)c4c3)ncn2)c(OC)cc1N1CCC(N(CC)CC)CC1 [compound 166],–,16,–,8.9,986,–
C=CC(=O)Nc1cc(Nc2cc(-c3ccc4cnn(C)c4c3)ncn2)c(OC(F)F)cc1N1CCC(N(CC)CC)CC1 [compound 167],–,16.5,–,17.1,1050,–
C=CC(=O)Nc1cc(Nc2cc(-c3ccc4cnn(C)c4c3)ncn2)c(OC)cc1OCCN(C)C [compound 169],–,34.3,–,11.4,1640,47.9
C=CC(=O)Nc1cc(Nc2cc(-c3ccc4cnn(C)c4c3)ncn2)c(OC(F)F)cc1OCCN(C)C [compound 170],–,37.4,–,28,1650,44.1
C=CC(=O)Nc1cc(Nc2cc(-c3ccc4c(cnn4C)c3)ncn2)c(OC(F)F)cc1OCCN(C)C [compound 171],–,26.2,–,38,743,28.4
C=CC(=O)Nc1cc(Nc2cc(-c3ccc4cnn(C)c4c3)ncn2)c(OC(F)F)cc1N1CCC(N(C)C)CC1 [compound 174],–,23.5,–,15.4,1330,56.4
C=CC(=O)Nc1cc(Nc2cc(-c3ccc4c(cnn4C)c3)ncn2)c(OC(F)F)cc1N1CCC(N(C)C)CC1 [compound 175],–,8.1,–,26,793,98.0
C=CC(=O)Nc1cc(Nc2nccc(-c3ccc4cnn(C)c4c3)n2)c(OC(F)F)cc1N(C)CCN(C)C [compound 177],–,19,–,23.5,1470,77.3
C=CC(=O)Nc1c(OCCN(C)C)cc(OC)c(Nc2cc(-c3ccc4c(cnn4C)c3)ncn2)c1F [compound 178],–,42.9,–,34.6,2000,46.7
C=CC(=O)Nc1cc(Nc2cc(-c3ccc4cnn(C)c4c3)ncn2)c(OC(F)F)cc1NCCN(C)C [compound 181],–,45.8,–,21.4,1680,36.7

# Second part, led by results:
IC50 (PC-9) [nM],IC50 (NCI-H1975) [nM],IC50 (A-431) [nM],"IC50 (PC-9; Homo sapiens, PC-9, 72 h) [nM]","IC50 (A-431; Homo sapiens, A-431, 72 h) [nM]",Compound,A-431/NCI-H1975 Selectivity (NCI-H1975)
–,53.3,–,55.9,1740,C=CC(=O)Nc1cc(Nc2cc(-c3ccc4cnn(C)c4c3)ncn2)c(OC(F)F)cc1N1CCN(CCN(C)C)CC1 [compound 182],32.6
–,40.4,–,69.8,984,C=CC(=O)Nc1cc(Nc2cc(-c3ccc4cnn(C)c4c3)ncn2)c(OC(F)F)cc1N(C)CCN(CC)CC [compound 183],24.4
–,49.5,–,32.6,1060,C=CC(=O)Nc1cc(Nc2cc(-c3ccc4cnn(C)c4c3)ncn2)c(OC)cc1N1CCN(C2CCN(C)CC2)CC1 [compound 184],21.3
–,53.8,–,43.7,2030,C=CC(=O)Nc1cc(Nc2cc(-c3ccc4c(cnn4C)c3)ncn2)c(OC(F)F)cc1OCCN1CCN(C)CC1 [compound 185],37.8
–,76.1,–,50.2,2570,C=CC(=O)Nc1cc(Nc2cc(-c3ccc4c(cnn4C)c3)ncn2)c(OC)cc1OCCN(C)C(C)C [compound 186],33.7
–,53,–,46.8,2410,C=CC(=O)Nc1cc(Nc2cc(-c3ccc4c(cnn4C)c3)ncn2)c(OC(F)F)cc1OCCN(C)C(C)C [compound 187],45.4
–,114,–,55.9,2790,C=CC(=O)Nc1cc(Nc2cc(-c3ccc4cnn(C)c4c3)ncn2)c(OC)cc1OCCN(C)C(C)C [compound 188],24.5
–,109,–,24.1,2640,C=CC(=O)Nc1cc(Nc2cc(-c3ccc4c(cnn4C)c3)ncn2)c(OC)cc1OCCN1CCCCC1 [compound 189],24.3
–,108,–,24.7,2080,C=CC(=O)Nc1cc(Nc2cc(-c3ccc4nc(C)sc4c3)ncn2)c(OC)cc1N1CCN(CCN(C)C)CC1 [compound 190],19.3
–,91.8,–,56.4,1760,C=CC(=O)Nc1cc(Nc2cc(-c3ccc4nc(C)sc4c3)ncn2)c(OC)cc1N1CCC(N(CC)CC)CC1 [compound 191],19.2
